The values that follow come from PMC5657837 (Journal of Insect Science, 2014).

For this assay, the system named is midgut α-amylase. Nature of the assay: α-amylase activity of larval midgut homogenate. Format: biochemical, Mythimna separata.

The term Ki denotes a dissociation constant, usually derived from enzyme kinetics or from competition with a known ligand. Read a low Ki as tighter binding. Compound `O=C1CCC(=O)N1Br` [NBS, N-bromosuccinimide] had a Ki of 2530 nM.
